Source: patent publication US9040637B2, “Manganese comprising nanostructures” (SPAGO IMAGING AB, priority 2011, dated 2015)

How the values were obtained:
Type in all cases: physicochemical
[1] = Relaxivity (r1, r2) measurement at 1.91 T (81.33 MHz); conditions: in H2O @ 25 C.
Text: Furthermore, the effect of a compound on the T1 is given as the relaxivity so a high relaxivity gives a stronger signal enhancement. The relaxivity (r) is frequency dependent in a structure dependent way which complicates the comparison of data from the literature from different sources. The clinical MRI scanners usually have a magnetic field of 1.5 or 3 Tesla so we have measured our relaxivities at 1.91 T, corresponding to a proton resonance frequency of 81.3 MHz, as a reasonable compromise. Measurements may also be done at other frequencies, such as 60 MHz. The relaxivity for the commercially available gadolinium based contrast agents are close to 4/mMGd/s at the clinically relevant fields.

[2] = Complexometric stability test (equimolar EDTA) evaluated by relaxometry; conditions: 1 mM Mn standard + equimolar EDTA, pH 7±0.5, 60 MHz, 37° C.
Description: Measure the longitudinal relaxivity of a nanostructure solution (r1(ns)) having a concentration of 1 mM Mn. Prepare another nanostructure solution containing 1 mM Mn and add an equivalent molar amount of EDTA. The pH of this solution must be adjusted to pH 7±0.5, if necessary. Measure the longitudinal relaxivity of this nanostructure solution with added EDTA (r1(ns+EDTA)). As a reference material, 1 mM solution using a Manganese Standard for AAS (Fluka 77036) is prepared, added an equimolar amount of EDTA, and pH adjusted to pH 7±0.5. The longitudinal relaxivity is measured (r1(Mn+EDTA)) and resulted to a value of 1.6 mM^−1s^−1. To calculate the % Mn-released from the nanostructure after addition of equivalent EDTA:
[formula] Note: Relaxation (T1, in seconds) is measured using the Minispec mq60 NMR analyzer (60 MHz) at 37° C. and relaxivity r1 is calculated using:
[formula] where T1 H2O=[…]; c1=1 mM.

[3] = Hydrodynamic diameter by dynamic light scattering (DLS), volume average; conditions: aqueous solution
Description: The term “DLS” as used herein is an acronym for dynamic light scattering, a particle sizing method, and may also be referred to as Photon Correlation Spectroscopy or Quasi-Elastic Light Scattering. The DLS sizes given as stated in the text and in the claims, if nothing else is specified, refers to the position of the maximum of the volume average peak for a sample measured at 25° C. in neutral aqueous solution with an ionic strength corresponding to 150 mM NaCl.
The hydrodynamic diameter referred to, is the diameter of the equivalent hard sphere as calculated from the diffusion coefficient, according to the Stokes-Einstein equation. The diffusion coefficient is in turn calculated from the time dependent light scattering data obtained by the Dynamic Light Scattering (DLS) technique. As a comparison, bovine serum albumin is measured to have a hydrodynamic diameter of 6.5 nm by DLS in aqueous solution, very much in agreement with the crystal structure. Depending on whether the number average, volume average, or scattered intensity average is used, the values may be somewhat different. […] The average diameters referred to in this text refers to volume averages.

[Cl][Mn][Cl] [MnCl2]
r1 [1]: 5.8

Mn+EDTA
longitudinal relaxivity r1(Mn+EDTA) [2]: 1.6 mM⁻¹ s⁻¹

bovine serum albumin: size comparison for DLS
hydrodynamic diameter by DLS [3]: 6.5 nm
